Assays:
Assay in all cases: relative viability (nuclei count vs DMSO), 5 days (fraction); higher = more cells survive
CUDC-101 + Crizotinib = compound: C#Cc1cccc(Nc2ncnc3cc(OC)c(OCCCCCCC(=O)NO)cc23)c1 [CUDC-101] + C[C@@H](Oc1cc(-c2cnn(C3CCNCC3)c2)cnc1N)c1c(Cl)ccc(F)c1Cl [Crizotinib] (partner 1 µM)
Summary of the method: (§1)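 Relative viability equals treated-well nuclei counts divided by vehicle-well nuclei counts. Counts came from 4× images of lung cancer cell lines grown in 1536-well plates for 5 days after pin-tool dosing on the day after seeding. Dosing used one drug alone or a fixed anchor-drug dose plus five library-drug doses (not always all listed) in √10 steps, and values are medians of duplicate plates.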

[1] = compound: C1=CC=C2C(=C1)N=C(S2)C(C#N)C3=NC(=NC=C3)NCCC4=CN=CC=C4 + CC(=O)c1c(C)c2cnc(Nc3ccc(N4CCNCC4)cn3)nc2n(C2CCCC2)c1=O [Palbociclib] (partner 0.5 µM)
Summary of the method: as §1

[2] = compound: C1=CC=C2C(=C1)N=C(S2)C(C#N)C3=NC(=NC=C3)NCCC4=CN=CC=C4 + Cc1nc(Nc2ncc(C(=O)Nc3c(C)cccc3Cl)s2)cc(N2CCN(CCO)CC2)n1 [Dasatinib] (partner 0.075 µM)
Summary of the method: as §1

Vandetanib + Lapatinib = compound: COc1cc2/c(=N/c3ccc(Br)cc3F)nc[nH]c2cc1OCC1CCN(C)CC1 [Vandetanib] + CS(=O)(=O)CCNCc1ccc(-c2ccc3ncnc(Nc4ccc(OCc5cccc(F)c5)c(Cl)c4)c3c2)o1 [Lapatinib] (partner 2 µM)
Summary of the method: as §1

| Cell Line | relative viability (CUDC-101 + Crizotinib; first compound 0.01 µM) | relative viability (CUDC-101 + Crizotinib; first compound 0.03162 µM) | relative viability (CUDC-101 + Crizotinib; first compound 0.1 µM) | relative viability (CUDC-101 + Crizotinib; first compound 0.3162 µM) | relative viability (CUDC-101 + Crizotinib; first compound 1 µM) | relative viability ([1]; first compound 0.005 µM) | relative viability ([1]; first compound 0.01581 µM) | relative viability ([1]; first compound 0.05 µM) | relative viability ([1]; first compound 0.1581 µM) | relative viability ([1]; first compound 0.5 µM) | relative viability ([2]; first compound 0.005 µM) | relative viability ([2]; first compound 0.01581 µM) | relative viability ([2]; first compound 0.05 µM) | relative viability ([2]; first compound 0.1581 µM) | relative viability ([2]; first compound 0.5 µM) | relative viability (Vandetanib + Lapatinib; first compound 0.02 µM) | relative viability (Vandetanib + Lapatinib; first compound 0.06325 µM) | relative viability (Vandetanib + Lapatinib; first compound 0.2 µM) | relative viability (Vandetanib + Lapatinib; first compound 0.6325 µM) | relative viability (Vandetanib + Lapatinib; first compound 2 µM) |
| --- | --- | --- | --- | --- | --- | --- | --- | --- | --- | --- | --- | --- | --- | --- | --- | --- | --- | --- | --- | --- |
| EKVX | 0.977 | 0.892 | 0.964 | 1.07 | 0.604 | 0.294 | 0.367 | 0.41 | 0.531 | 0.285 | 0.464 | 0.473 | 0.523 | 0.473 | 0.547 | 0.2 | 0.184 | 0.183 | 0.2 | 0.215 |
| NCI-H1650 | 0.859 | 0.782 | 0.942 | 0.796 | 0.595 | 0.318 | 0.272 | 0.336 | 0.395 | 0.175 | 0.449 | 0.278 | 0.324 | 0.372 | 0.263 | 0.704 | 0.734 | – | 0.988 | 0.765 |
| NCI-H727 | 0.913 | 0.931 | 0.738 | 0.647 | 0.361 | 0.508 | 0.594 | 0.64 | 0.658 | 0.673 | – | 0.387 | 0.368 | 0.413 | 0.347 | 0.847 | 0.661 | 0.786 | 0.91 | 0.625 |
| NCI-H838 | 0.87 | 0.74 | 0.832 | 0.669 | 0.382 | 0.223 | 0.211 | 0.216 | 0.214 | 0.213 | 0.204 | 0.28 | 0.325 | 0.264 | 0.262 | 0.937 | 0.953 | 0.958 | 0.958 | 0.99 |
| NCI-H1944 | 1.07 | 1.09 | 0.954 | 0.918 | 0.491 | 0.314 | 0.373 | 0.293 | 0.32 | 0.318 | 0.211 | 0.195 | 0.21 | 0.22 | 0.2 | 0.818 | 0.848 | 0.798 | 0.845 | 0.808 |
| SK-LU-1 | 1.13 | 1.03 | 0.795 | 0.77 | 0.579 | 0.412 | 0.399 | 0.31 | 0.41 | 0.395 | 0.174 | 0.184 | 0.189 | 0.188 | 0.199 | 0.859 | 0.676 | 0.992 | 0.832 | 0.816 |
| LC-2-ad | 0.454 | 0.482 | 0.432 | 0.436 | 0.343 | 0.365 | 0.526 | 0.473 | 0.509 | 0.399 | 0.542 | 0.398 | 0.55 | 0.525 | 0.396 | 0.896 | 0.949 | 0.506 | 0.783 | 0.711 |
| LOU-NH91 | 0.701 | 0.605 | 0.699 | 0.521 | 0.539 | 0.545 | 0.552 | 0.477 | 0.563 | 0.543 | 0.501 | 0.567 | 0.509 | 0.58 | 0.471 | 0.739 | 0.761 | 0.783 | 0.764 | 0.799 |

Source: the supplement of paper PMC10307832
